{
  "source": "patent US20240108623A1",
  "about": "“METHODS OF TREATING CANCER WITH POZIOTINIB” (BOARD OF REGENTS, THE UNIVERSITY OF TEXAS SYSTEM, priority 2021, published 2024)",
  "key": {"[1]": {"test_system": "PDXs with G719A mutations", "assay": "PDX tumor growth", "assay_type": "in vivo, mice", "settings": "2.5 mg/kg poziotinib; 5 mg/kg and 20 mg/kg osimertinib; five days per week, day 28"}, "[2]": {"target": "T1, EGFR L858R/V834L (Homo sapiens, UniProt P00533, L858R/V834L)", "T1 construct": "expressed in transfected cells; host or cells: Ba/F3 (retroviral, pBabe-Puro based vector)", "assay": "Ba/F3 cell drug screening, Cell Titer Glo", "assay_type": "cell-based", "settings": "Ba/F3 cells expressing EGFR L858R/V834L; 72 hours", "description": "(§1) Ba/F3 cell generation, drug screening, and IC50 approximations. Ba/F3 cells were obtained as a gift from Dr. Gordon Mills (MD Anderson Cancer Center), and maintained in RPMI (Sigma) containing 10% FBS, 1% penicillin/streptomycin, and 10 ng/ml recombinant mIL-3 (R&D Biosystems). To establish stable Ba/F3 cell lines, Ba/F3 cells were transduced with retroviruses containing mutant EGFR plasmids for 12-24 hours. Retroviruses were generated using Lipofectamine 2000 (Invitrogen) transfections of Phoenix 293T-ampho cells (Orbigen) with pBabe-Puro based vectors listed below in Table 6. Vectors were generated by GeneScript or Bioinnovatise using parental vectors from Addgene listed below in Table 6.\n(§2) After 48-72 hours of transduction, 2 μg/ml puromycin (Invitrogen) was added to Ba/F3 cell lines in complete RPMI. To select for EGFR positive cell lines, cells were stained with PE-EGFR (Biolegend) and sorted by FACS. After sorting, EGFR positive cells were maintained in RPMI containing 10% FBS, 1% penicillin/streptomycin, and 1 ng/ml EGF to support cell viability. Drug screening was performed as previously described^41,42. Shortly, cells were plated in 384-well plates (Greiner Bio-One) at 2000-3000 cells per well in technical triplicate. Seven different concentrations of TKIs or DMSO vehicle were added to reach a final volume of 40 μL per well. After 72 hours, 11p L of Cell Titer Glo (Promega) was added to each well. Plates were incubated for a minimum of 10 minutes, and bioluminescence was determined using a FLUOstar OPTIMA plate reader (BMG LABTECH). Raw bioluminescence values were normalized to DMSO control treated cells, and values were plotted in GraphPad Prism. Non-linear regressions were used to fit the normalized data with a variable slope, and IC50 values were determined by GraphPad prism by interpolation of concentrations at 50% inhibition. Drug screens were performed in technical triplicate on each plate and either duplicate or triplicate biological replicates. Mutant to WT ratios (Mut/WT) for each drug were calculated by dividing the IC50 values of mutant cell lines by the average IC50 value of Ba/F3 cells expressing WT EGFR supplemented with 10 ng/ml EGF for each drug. Statistical differences between groups were determined by ANOVA as described in the figure legends."}, "[3]": {"target": "T2, EGFR R776C (Homo sapiens, UniProt P00533, R776C)", "T2 construct": "host or cells: Ba/F3 (retroviral transduction, pBabe-Puro based vectors)", "assay": "Ba/F3 cell drug screening, Cell Titer Glo", "assay_type": "cell-based", "settings": "Ba/F3 cells expressing EGFR R776C; 72 hours", "description": "as §1, §2"}, "[4]": {"target": "T3, EGFR H773insNPH (Homo sapiens, UniProt P00533, INS773NPH)", "T3 construct": "expressed in transfected cells; host or cells: Ba/F3 (retroviral, pBabe-Puro based vector)", "assay": "Ba/F3 cell drug screening, Cell Titer Glo", "assay_type": "cell-based", "settings": "Ba/F3 cells expressing EGFR H773insNPH; 72 hours", "description": "as §1, §2"}, "[5]": {"target": "T4, EGFR Ex19del T854I (Homo sapiens, UniProt P00533, DEL746-750/T854I)", "T4 construct": "expressed in transfected cells; host or cells: Ba/F3 (murine pro-B cells), retroviral transduction with pBabe-Puro based vectors", "assay": "Ba/F3 cell drug screening, Cell Titer Glo", "assay_type": "cell-based", "settings": "Ba/F3 cells expressing EGFR Ex19del T854I; 72 hours", "description": "as §1, §2"}, "[6]": {"target": "T5, EGFR L718Q (Homo sapiens, UniProt P00533, L718Q)", "T5 construct": "expressed in transfected cells; host or cells: Ba/F3 (retroviral transduction, pBabe-Puro based vectors)", "assay": "Ba/F3 cell drug screening, Cell Titer Glo", "assay_type": "cell-based", "settings": "Ba/F3 cells expressing EGFR L718Q; 72 hours", "description": "as §1, §2"}, "[7]": {"target": "T6, EGFR L858R/L792H (Homo sapiens, UniProt P00533, L792H/L858R)", "T6 construct": "expressed in transfected cells; host or cells: Ba/F3 (retroviral transduction, pBabe-Puro based vectors)", "assay": "Ba/F3 cell drug screening, Cell Titer Glo", "assay_type": "cell-based", "settings": "Ba/F3 cells expressing EGFR L858R/L792H; 72 hours", "description": "as §1, §2"}, "[8]": {"target": "T7, EGFR L858R G724S (Homo sapiens, UniProt P00533, G724S/L858R)", "T7 construct": "expressed in transfected cells; host or cells: Ba/F3 (murine pro-B cells), retroviral transduction with pBabe-Puro based vectors", "assay": "Ba/F3 cell drug screening, Cell Titer Glo", "assay_type": "cell-based", "settings": "Ba/F3 cells expressing EGFR L858R G724S; 72 hours", "description": "as §1, §2"}, "[9]": {"target": "T8, EGFR L833V (Homo sapiens, UniProt P00533, L833V)", "T8 construct": "expressed in transfected cells; host or cells: Ba/F3 (retroviral, pBabe-Puro based vector)", "assay": "Ba/F3 cell drug screening, Cell Titer Glo", "assay_type": "cell-based", "settings": "Ba/F3 cells expressing EGFR L833V; 72 hours", "description": "as §1, §2"}, "[10]": {"target": "T9, EGFR Ex19del/C797S (Homo sapiens, UniProt P00533, C797S/DEL746-750)", "T9 construct": "expressed in transfected cells; host or cells: Ba/F3 (murine pro-B cells), retroviral transduction with pBabe-Puro based vectors", "assay": "Ba/F3 cell drug screening, Cell Titer Glo", "assay_type": "cell-based", "settings": "Ba/F3 cells expressing EGFR Ex19del/C797S; 72 hours", "description": "as §1, §2"}, "[11]": {"target": "T10, EGFR L718Q T790M (Homo sapiens, UniProt P00533, L718Q/T790M)", "T10 construct": "expressed in transfected cells; host or cells: Ba/F3 (retroviral transduction, pBabe-Puro based vectors)", "assay": "Ba/F3 cell drug screening, Cell Titer Glo", "assay_type": "cell-based", "settings": "Ba/F3 cells expressing EGFR L718Q T790M; 72 hours", "description": "as §1, §2"}, "[12]": {"target": "T11, EGFR G719S T790M (Homo sapiens, UniProt P00533, G719S/T790M)", "T11 construct": "expressed in transfected cells; host or cells: Ba/F3 (retroviral transduction, pBabe-Puro based vectors)", "assay": "Ba/F3 cell drug screening, Cell Titer Glo", "assay_type": "cell-based", "settings": "Ba/F3 cells expressing EGFR G719S T790M; 72 hours", "description": "as §1, §2"}, "[13]": {"target": "T12, EGFR Ex19del T790M (Homo sapiens, UniProt P00533, DEL746-750/T790M)", "T12 construct": "expressed in transfected cells; host or cells: Ba/F3 (retroviral transduction, pBabe-Puro based vectors)", "assay": "Ba/F3 cell drug screening, Cell Titer Glo", "assay_type": "cell-based", "settings": "Ba/F3 cells expressing EGFR Ex19del T790M; 72 hours", "description": "as §1, §2"}, "[14]": {"target": "T13, EGFR K757R (Homo sapiens, UniProt P00533, K757R)", "T13 construct": "expressed in transfected cells; host or cells: Ba/F3 (retroviral transduction, pBabe-Puro based vectors)", "assay": "Ba/F3 cell drug screening, Cell Titer Glo", "assay_type": "cell-based", "settings": "Ba/F3 cells expressing EGFR K757R; 72 hours", "description": "as §1, §2"}, "[15]": {"target": "T14, EGFR L858R L718Q (Homo sapiens, UniProt P00533, L718Q/L858R)", "T14 construct": "host or cells: Ba/F3 (retroviral transduction, pBabe-Puro based vectors)", "assay": "Ba/F3 cell drug screening, Cell Titer Glo", "assay_type": "cell-based", "settings": "Ba/F3 cells expressing EGFR L858R L718Q; 72 hours", "description": "as §1, §2"}, "[16]": {"target": "T15, EGFR S768I V774M (Homo sapiens, UniProt P00533, S768I/V774M)", "T15 construct": "host or cells: Ba/F3 (retroviral transduction, pBabe-Puro based vectors)", "assay": "Ba/F3 cell drug screening, Cell Titer Glo", "assay_type": "cell-based", "settings": "Ba/F3 cells expressing EGFR S768I V774M; 72 hours", "description": "as §1, §2"}},
  "data": [
    {"molecule": "C=CC(=O)N1CCC(Oc2cc3c(Nc4ccc(Cl)c(Cl)c4F)ncnc3cc2OC)CC1", "note": "[Poziotinib]", "values": [
      {"measurement": "sensitivity of mice harboring PDXs with G719A mutations", "setting": "[1]", "result": "most sensitive"},
      {"measurement": "Response of Cells Comprising Classical-Like EGFR Mutations to Second-Generation TKIs", "setting": "[2]", "result": 0.08599},
      {"measurement": "Response of Cells Comprising PACC EGFR Mutations to Second-Generation TKIs", "setting": "[3]", "result": 0.03049},
      {"measurement": "Response of Cells Comprising Ex20ins EGFR Mutations to Poziotinib", "setting": "[4]", "result": 0.3855},
      {"measurement": "Response of Cells Comprising PACC EGFR Mutations to Second-Generation TKIs", "setting": "[5]", "result": 0.008664},
      {"measurement": "Response of Cells Comprising PACC EGFR Mutations to Second-Generation TKIs", "setting": "[6]", "result": 0.1927},
      {"measurement": "Response of Cells Comprising PACC EGFR Mutations to Second-Generation TKIs", "setting": "[7]", "result": 0.07789},
      {"measurement": "Response of Cells Comprising PACC EGFR Mutations to Second-Generation TKIs", "setting": "[8]", "result": 0.0068},
      {"measurement": "Response of Cells Comprising Classical-Like EGFR Mutations to Second-Generation TKIs", "setting": "[9]", "result": 0.004716},
      {"measurement": "Response of Cells Comprising PACC EGFR Mutations to Second-Generation TKIs", "setting": "[10]", "result": 0.458},
      {"measurement": "Response of Cells Comprising T790M-like-R EGFR Mutations to Second-Generation TKIs", "setting": "[11]", "result": 6.487},
      {"measurement": "Response of Cells Comprising T790M-like-S EGFR Mutations to Second-Generation TKIs", "setting": "[12]", "result": 0.3262},
      {"measurement": "Response of Cells Comprising T790M-like-S EGFR Mutations to Second-Generation TKIs", "setting": "[13]", "result": 3.423},
      {"measurement": "Response of Cells Comprising PACC EGFR Mutations to Second-Generation TKIs", "setting": "[14]", "result": 0.07563},
      {"measurement": "Response of Cells Comprising PACC EGFR Mutations to Second-Generation TKIs", "setting": "[15]", "result": 0.01623},
      {"measurement": "Response of Cells Comprising PACC EGFR Mutations to Second-Generation TKIs", "setting": "[16]", "result": 0.1181}
    ]}
  ]
}
